Patent US4820716A, “7-(1-Pyrrolidinyl)-quinolonecarboxylic acid derivatives” (Bayer Aktiengesellschaft, priority 1986, dated 1989)
Converted amounts (≈) assume the structure as drawn. Read-outs that look alike come from different tables or passages of the source.

Experiments:
Assay in all cases: MIC, agar dilution test (multipoint inoculator)
Format in all cases: cell-based
Psdm. aeruginosa = details: Pseudomonas aeruginosa, Isosensitest medium pH 7.2
From the text: (§1) *Agar dilution test (multipoint inoculator) Isosensitest medium pH 7.2

Proteus vulg. = tested on: Proteus vulg.
From the text: as §1

Proteus mir. = details: Isosensitest medium pH 7.2
From the text: as §1

Proteus morg. = details: Isosensitest medium pH 7.2
From the text: as §1

Providencia stuartei = tested on: Providencia stuartei
From the text: as §1

Klebsiella pneum. = tested on: Klebsiella pneum.
From the text: as §1

Serratia marc. = details: strain 16040, Isosensitest medium pH 7.2
From the text: as §1

Strepto. faecalis = details: Isosensitest medium pH 7.2
From the text: as §1

E. coli = details: Escherichia coli, Isosensitest medium pH 7.2
From the text: as §1

Staph. aureus = details: Staphylococcus aureus, Isosensitest medium pH 7.2
From the text: as §1

[1] = strain 1017, Isosensitest medium pH 7.2, read-out: MIC
[2] = pH 7.2, strain 8175, read-out: MIC
[3] = pH 7.2, strain 8223, read-out: MIC
[4] = pH 7.2, strain 12012, Isosensitest medium pH 7.2
[5] = pH 7.2, strain 12052, Isosensitest medium pH 7.2
[6] = pH 7.2, strain 57USA, Isosensitest medium pH 7.2, read-out: MIC
[7] = pH 7.2, strain 63, Isosensitest medium pH 7.2, read-out: MIC
[8] = pH 7.2, strain 6179, Isosensitest medium pH 7.2, read-out: MIC
[9] = pH 7.2, strain 6318, Isosensitest medium pH 7.2, read-out: MIC
[10] = pH 7.2, strain 8085, Isosensitest medium pH 7.2, read-out: MIC
[11] = pH 7.2, strain 455/7, read-out: MIC
[12] = pH 7.2, strain Neumann, read-out: MIC

O=C(O)c1cn(C2CC2)c2cc(N3CCC(O)C3)c(F)cc2c1=O (racemic) [Example 1, 1-cyclopropyl-6-fluoro-1,4-dihydro-7-(3-hydroxy-1-pyrrolidinyl)-4-oxo-3-quinolinecarboxylic acid]
MIC (Psdm. aeruginosa; pH 7.2, strain Ellsworth): 0.125 µg/mL (≈ 0.376 µM)
MIC (Psdm. aeruginosa; pH 7.2, strain Walter): 1 µg/mL (≈ 3.01 µM)
MIC (Proteus vulg.; [1]): ≤ 0.015 µg/mL
MIC (Proteus mir.; [2]): 0.06 µg/mL (≈ 0.181 µM)
MIC (Proteus mir.; [3]): 2 µg/mL (≈ 6.02 µM)
MIC (Proteus morg.; strain 932, read-out: MIC): ≤ 0.015 µg/mL
MIC (Proteus morg.; strain 11006): ≤ 0.015 µg/mL
MIC (Providencia stuartei; [4]): ≤ 0.015 µg/mL
MIC (Providencia stuartei; [5]): 32 µg/mL (≈ 96.3 µM)
MIC (Klebsiella pneum.; [6]): 0.125 µg/mL (≈ 0.376 µM)
MIC (Klebsiella pneum.; [7]): < 0.015 µg/mL
MIC (Klebsiella pneum.; [8]): 0.125 µg/mL (≈ 0.376 µM)
MIC (Klebsiella pneum.; [9]): 0.06 µg/mL (≈ 0.181 µM)
MIC (Klebsiella pneum.; [10]): ≤ 0.015 µg/mL
MIC (Serratia marc.): 32 µg/mL (≈ 96.3 µM)
MIC (Strepto. faecalis; pH 7.2, strain 9790): 0.125 µg/mL (≈ 0.376 µM)
MIC (Strepto. faecalis; pH 7.2, strain 27101): 0.125 µg/mL (≈ 0.376 µM)
MIC (E. coli; [11]): 32 µg/mL (≈ 96.3 µM)
MIC (E. coli; pH 7.2, strain 4418): < 0.015 µg/mL
MIC (E. coli; pH 7.2, strain A261): < 0.015 µg/mL
MIC (E. coli; [12]): ≤ 0.015 µg/mL
MIC (E. coli; pH 7.2, strain T7): < 0.015 µg/mL
MIC (Staph. aureus; pH 7.2, strain 133): ≤ 0.015 µg/mL
MIC (Staph. aureus; pH 7.2, strain 1756): ≤ 0.015 µg/mL
MIC (Staph. aureus; pH 7.2, strain FK422): ≤ 0.015 µg/mL

O=C(O)c1cn(C2CC2)c2cc(N3CCNCC3)c(F)cc2c1=O [Ciprofloxacin, 1-cyclopropyl-6-fluoro-1,4-dihydro-4-oxo-7-(1-piperazinyl)-3-quinolinecarboxylic acid, reference compound]
MIC (Psdm. aeruginosa; pH 7.2, strain Ellsworth): 0.06 µg/mL (≈ 0.181 µM)
MIC (Psdm. aeruginosa; pH 7.2, strain Walter): 0.5 µg/mL (≈ 1.51 µM)
MIC (Proteus vulg.; pH 7.2): ≤ 0.015 µg/mL
MIC (Proteus mir.; pH 7.2, strain 8175): 0.06 µg/mL (≈ 0.181 µM)
MIC (Proteus mir.; pH 7.2, strain 8223): 4 µg/mL (≈ 12.1 µM)
MIC (Proteus morg.; pH 7.2, strain 932): < 0.015 µg/mL
MIC (Proteus morg.; pH 7.2, strain 11006): ≤ 0.015 µg/mL
MIC (Providencia stuartei; [4]): ≤ 0.015 µg/mL
MIC (Providencia stuartei; [5]): 16 µg/mL (≈ 48.3 µM)
MIC (Klebsiella pneum.; pH 7.2, strain 57USA, Isosensitest medium pH 7.2): ≤ 0.015 µg/mL
MIC (Klebsiella pneum.; pH 7.2, strain 63, Isosensitest medium pH 7.2): 0.03 µg/mL (≈ 0.0905 µM)
MIC (Klebsiella pneum.; pH 7.2, strain 6318, Isosensitest medium pH 7.2): 0.06 µg/mL (≈ 0.181 µM)
MIC (Klebsiella pneum.; pH 7.2, strain 8085, Isosensitest medium pH 7.2): ≤ 0.015 µg/mL
MIC (Serratia marc.): 8 µg/mL (≈ 24.1 µM)
MIC (Strepto. faecalis; pH 7.2, strain 9790): 0.5 µg/mL (≈ 1.51 µM)
MIC (Strepto. faecalis; pH 7.2, strain 27101): 0.25 µg/mL (≈ 0.754 µM)
MIC (E. coli; [11]): 1 µg/mL (≈ 3.02 µM)
MIC (E. coli; pH 7.2, strain 4418, read-out: MIC): ≤ 0.015 µg/mL
MIC (E. coli; pH 7.2, strain A261, read-out: MIC): ≤ 0.015 µg/mL
MIC (E. coli; [12]): ≤ 0.015 µg/mL
MIC (E. coli; pH 7.2, strain T7, read-out: MIC): ≤ 0.015 µg/mL
MIC (Staph. aureus; pH 7.2, strain 133): 0.25 µg/mL (≈ 0.754 µM)
MIC (Staph. aureus; pH 7.2, strain 1756): 0.25 µg/mL (≈ 0.754 µM)
MIC (Staph. aureus; pH 7.2, strain FK422): 0.5 µg/mL (≈ 1.51 µM)

O=C(O)c1cn(C2CC2)c2c(Cl)c(N3CCC(O)C3)c(F)cc2c1=O (centres unmarked) [Example 3, 8-chloro-1-cyclopropyl-7-fluoro-1,4-dihydro-7-(3-hydroxy-1-pyrrolidinyl)-4-oxo-3-quinolinecarboxylic acid]
MIC (Psdm. aeruginosa; pH 7.2, strain Ellsworth): ≤ 0.015 µg/mL
MIC (Psdm. aeruginosa; pH 7.2, strain Walter): 0.25 µg/mL (≈ 0.682 µM)
MIC (Proteus vulg.; [1]): ≤ 0.015 µg/mL
MIC (Proteus mir.; [2]): ≤ 0.015 µg/mL
MIC (Proteus mir.; [3]): 0.06 µg/mL (≈ 0.164 µM)
MIC (Proteus morg.; strain 932, read-out: MIC): ≤ 0.015 µg/mL
MIC (Proteus morg.; strain 11006): ≤ 0.015 µg/mL
MIC (Providencia stuartei; [4]): ≤ 0.015 µg/mL
MIC (Providencia stuartei; [5]): 1 µg/mL (≈ 2.73 µM)
MIC (Klebsiella pneum.; [6]): ≤ 0.015 µg/mL
MIC (Klebsiella pneum.; [7]): ≤ 0.015 µg/mL
MIC (Klebsiella pneum.; [8]): < 0.015 µg/mL
MIC (Klebsiella pneum.; [9]): ≤ 0.015 µg/mL
MIC (Klebsiella pneum.; [10]): ≤ 0.015 µg/mL
MIC (Serratia marc.): 1 µg/mL (≈ 2.73 µM)
MIC (Strepto. faecalis; pH 7.2, strain 9790): ≤ 0.015 µg/mL
MIC (Strepto. faecalis; pH 7.2, strain 27101): ≤ 0.015 µg/mL
MIC (E. coli; [11]): 0.25 µg/mL (≈ 0.682 µM)
MIC (E. coli; pH 7.2, strain 4418): ≤ 0.015 µg/mL
MIC (E. coli; pH 7.2, strain A261): ≤ 0.015 µg/mL
MIC (E. coli; [12]): ≤ 0.015 µg/mL
MIC (E. coli; pH 7.2, strain T7): ≤ 0.015 µg/mL
MIC (Staph. aureus; pH 7.2, strain 133): ≤ 0.015 µg/mL
MIC (Staph. aureus; pH 7.2, strain 1756): ≤ 0.015 µg/mL
MIC (Staph. aureus; pH 7.2, strain FK422): ≤ 0.015 µg/mL
